# Measurements as given in ChEMBL document CHEMBL4811318, “Pyrrolo[1,2-a]quinoxal-5-inium salts and 4,5-dihydropyrrolo[1,2-a]quinoxalines: Synthesis, activity and computational docking for protein tyrosine phosphatase 1B” (Bioorg Med Chem, 2021).
# Assays:
# [1] = species: Homo sapiens; assay: Selectivity index, ratio of IC50 for recombinant human TC-PTP (2 to 315 residues) to IC50 for recombinant human PTP1B (1 to 322 residues) expressed in Escherichia coli
# [2] = tested on: HepG2; assay: Cytotoxicity against human HepG2 cells assessed as […] cell viability at 50 uM measured after 24 hrs by MTT assay relative to control; assay type: cell-based; conditions: hepg2, 24 h
# [3] = biological target: T1, Tyrosine-protein phosphatase non-receptor type 2 (Homo sapiens, UniProt P17706); assay: Inhibition of recombinant human TC-PTP (2 to 315 residues) expressed in Escherichia coli using pNPP as substrate
# T1 sequence (P17706 whole entry): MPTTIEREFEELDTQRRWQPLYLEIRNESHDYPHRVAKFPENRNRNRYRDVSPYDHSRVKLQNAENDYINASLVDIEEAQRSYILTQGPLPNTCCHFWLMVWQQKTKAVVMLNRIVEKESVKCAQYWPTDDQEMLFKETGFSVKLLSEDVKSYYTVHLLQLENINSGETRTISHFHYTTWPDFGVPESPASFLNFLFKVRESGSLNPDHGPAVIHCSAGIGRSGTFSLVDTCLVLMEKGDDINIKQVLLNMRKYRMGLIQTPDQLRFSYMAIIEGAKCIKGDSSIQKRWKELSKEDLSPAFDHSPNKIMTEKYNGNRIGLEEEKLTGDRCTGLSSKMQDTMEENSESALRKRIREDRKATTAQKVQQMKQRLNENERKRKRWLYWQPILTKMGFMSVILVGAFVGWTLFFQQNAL
# [4] = biological target: T2, Tyrosine-protein phosphatase non-receptor type 1 (Homo sapiens, UniProt P18031); assay: Inhibition of PTP1B (unknown origin)
# T2 sequence (P18031 whole entry): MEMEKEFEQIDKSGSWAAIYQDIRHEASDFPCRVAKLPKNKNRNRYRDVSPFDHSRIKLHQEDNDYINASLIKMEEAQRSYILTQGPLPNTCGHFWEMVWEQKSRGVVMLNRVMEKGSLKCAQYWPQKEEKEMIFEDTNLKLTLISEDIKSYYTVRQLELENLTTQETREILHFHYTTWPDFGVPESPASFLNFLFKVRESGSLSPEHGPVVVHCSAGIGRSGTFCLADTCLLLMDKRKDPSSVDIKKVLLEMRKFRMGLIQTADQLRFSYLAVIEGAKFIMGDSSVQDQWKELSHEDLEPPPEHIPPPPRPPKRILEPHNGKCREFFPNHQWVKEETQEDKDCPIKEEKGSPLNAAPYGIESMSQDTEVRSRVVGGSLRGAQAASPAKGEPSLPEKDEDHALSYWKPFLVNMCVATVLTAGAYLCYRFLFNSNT
# [5] = biological target: T2, Tyrosine-protein phosphatase non-receptor type 1; assay: Inhibition of recombinant human PTP1B (1 to 322 residues) expressed in Escherichia coli using pNPP as substrate
# [6] = biological target: T3, Tyrosine-protein phosphatase non-receptor type 1 (Homo sapiens) (UniProt P18031); assay: Inhibition of recombinant human PTP1B (1 to 322 residues) expressed in Escherichia coli at 1 uM using IR5 (1142 to 1153 residues) as substrate incubated for 30 mins by spectrophotometry analysis relative to control
# T3 sequence (whole entry): T2 sequence (P18031 whole entry)
# [7] = tested on: C2C12; assay: Induction of glucose uptake in mouse C2C12 cells at 2 uM pretreated with insulin for 30 mins followed by compound treatment for 90 mins by fluorescence microplate reader assay relative to control; assay type: functional; conditions: 1.5 h
# [8] = Stability of the compound measured up to 5 days; assay type: physicochemical; conditions: 120 h; time <=5 day
# [9] = Stability of the compound measured after 2 months at 4 degreeC; assay type: physicochemical; conditions: 1460 h
# [10] = Stability of the compound measured after 5 days; assay type: physicochemical; conditions: 120 h; time 5 day
IC50 [5],inhibition [6],Compound,Activity [2],also measured
–,–,Cc1nc2ccccc2n2cccc12,> 90%,Ratio IC50 [1]: 4; IC50 [3]: 3.95 µM
–,–,CC1(C)CC[C@]2(C(=O)O)CC[C@@H]3C(=CC[C@H]4[C@H]3CC[C@@H]3[C@@H]4CC[C@H](O[C@@H]4O[C@H](CO)[C@@H](O)[C@H](O)[C@H]4O)C3(C)C)[C@@H]2C1,–,IC50 [4]: 1.4 µM
> 10 µM,–,Cc1ccc2c(c1)nc(C)c1cccn12,> 90%,–
0.83 µM,22%,Cc1c2cccn2c2cc(Cl)ccc2[n+]1C.[I-],> 90%,Ratio IC50 [1]: > 6.02; IC50 [3]: > 5 µM
–,–,CCCCCCS(=O)(=O)NC(=O)c1ccc(CSCc2ccc(-c3ccccc3)cc2)cc1,–,IC50 [4]: 0.25 µM
–,–,C=C(C)[C@@H]1CC[C@]2(C(=O)O)CC[C@]3(C)[C@H](CC[C@@H]4[C@@]5(C)CC[C@H](O)C(C)(C)[C@@H]5CC[C@]43C)[C@@H]12 [BETULINIC ACID],–,IC50 [4]: 1.5 µM
0.51 µM,56%,CC1c2cccn2-c2ccccc2N1C (stereo not drawn),> 90%,Ratio IC50 [1]: 0.98; IC50 [3]: 0.5 µM
–,56%,CC1Nc2cc(C(F)(F)F)ccc2-n2cccc21 (stereo not drawn),> 90%,–
–,56%,Cc1cc2c(cc1C)-n1cccc1C(C)N2 (stereo not drawn),> 90%,–
0.95 µM,56%,CC1Nc2cc(Cl)c(Cl)cc2-n2cccc21 (stereo not drawn),> 90%,Ratio IC50 [1]: > 5.26; IC50 [3]: > 5 µM; Activity [7]: 150%
–,–,c1ccc(Cc2nc3ccccc3n3cccc23)cc1,–,IC50 [4]: 0.24 µM
1.39 µM,56%,COc1ccc2c(c1)NC(C)c1cccn1-2 (stereo not drawn),> 90%,–
–,–,C=C(C)[C@@H]1CC[C@]2(C)CC[C@]3(C)[C@H](CC[C@@H]4[C@@]5(C)CC[C@H](O)C(C)(C)[C@@H]5CC[C@]43C)[C@@H]12 [LUPEOL],–,IC50 [4]: 0.56 µM
0.32 µM,22%,Cc1c2cccn2c2ccccc2[n+]1C.[I-],> 90%,–
> 10 µM,22%,Cc1ccc2c(c1)[n+](C)c(C)c1cccn12.[I-],> 90%,–
–,22%,Cc1cc2c(cc1C)[n+](C)c(C)c1cccn12.[I-],> 90%,–
1.91 µM,22%,CCCC[n+]1c(C)c2cccn2c2ccccc21.[I-],> 90%,–
0.41 µM,56%,CC1Nc2ccccc2-n2cccc21 (stereo not drawn),> 90%,Stabilty [8]: Stable; Stabilty [9]: Stable; Stabilty [10]: Unstable
0.57 µM,–,Cc1nc2cc(Cl)c(Cl)cc2n2cccc12,> 90%,Ratio IC50 [1]: > 43; IC50 [3]: > 25 µM
> 10 µM,–,COc1ccc2c(c1)nc(C)c1cccn12,> 90%,–
0.6 µM,–,Cc1nc2ccc(Cl)cc2n2cccc12,> 90%,Ratio IC50 [1]: > 41; IC50 [3]: > 25 µM
0.58 µM,22%,Cc1c2cccn2c2ccc(C(F)(F)F)cc2[n+]1C.[I-],> 90%,Ratio IC50 [1]: 0.71; IC50 [3]: 0.41 µM
> 10 µM,–,Cc1nc2cc(C(F)(F)F)ccc2n2cccc12,> 90%,–
> 10 µM,22%,COc1ccc2c(c1)[n+](C)c(C)c1cccn12.[I-],> 90%,–
0.45 µM,56%,CC1Nc2ccc(Cl)cc2-n2cccc21 (stereo not drawn),> 90%,Ratio IC50 [1]: > 11.1; IC50 [3]: > 5 µM
–,56%,Cc1ccc2c(c1)NC(C)c1cccn1-2 (stereo not drawn),–,–
> 10 µM,–,Cc1cc2nc(C)c3cccn3c2cc1C,> 90%,–
